Experiment in all cases: Z'-LYTE kinase panel
What all share (type): biochemical

In experiment [1] the target is T1, STK24 (MST3) (Homo sapiens, UniProt Q9Y6E0).
T1 construct: purchased ThermoFisher (SelectScreen, Z'-LYTE)
The protocol: (§1) Compounds 2, 3 and 5 were tested for activity against the 225 kinases in the ThermoFisher standard kinase panel. The standard Z′-LYTE assay protocol (ThermoFisher) was used to measure the percentage inhibition at 10 µM compound concentration (details are provided in the supporting information).

The target of experiment [2] is T2, GRK7 (Homo sapiens, UniProt Q8WTQ7).
T2 construct: purchased ThermoFisher (SelectScreen, Z'-LYTE)
T2 sequence (Q8WTQ7 1-553): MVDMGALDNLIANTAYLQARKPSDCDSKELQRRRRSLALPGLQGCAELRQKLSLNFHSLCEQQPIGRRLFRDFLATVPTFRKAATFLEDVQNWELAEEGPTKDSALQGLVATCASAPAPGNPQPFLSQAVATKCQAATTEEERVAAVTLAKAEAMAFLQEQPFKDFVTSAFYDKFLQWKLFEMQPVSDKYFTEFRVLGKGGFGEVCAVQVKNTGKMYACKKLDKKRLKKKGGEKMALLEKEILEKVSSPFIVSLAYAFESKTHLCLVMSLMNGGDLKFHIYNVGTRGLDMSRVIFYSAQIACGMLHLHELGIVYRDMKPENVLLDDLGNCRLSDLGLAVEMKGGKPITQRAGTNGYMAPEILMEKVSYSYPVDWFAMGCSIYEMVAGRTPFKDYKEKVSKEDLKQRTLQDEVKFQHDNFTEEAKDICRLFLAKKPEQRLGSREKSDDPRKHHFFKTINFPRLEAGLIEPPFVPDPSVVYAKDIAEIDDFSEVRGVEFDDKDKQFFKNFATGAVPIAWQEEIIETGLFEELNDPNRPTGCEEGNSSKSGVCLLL
The protocol:
as §1

For experiment [3], the target named is T3, RPS6KA3 (RSK2) (Homo sapiens, UniProt P51812).
T3 construct: purchased ThermoFisher (SelectScreen, Z'-LYTE)
T3 sequence (P51812 whole entry): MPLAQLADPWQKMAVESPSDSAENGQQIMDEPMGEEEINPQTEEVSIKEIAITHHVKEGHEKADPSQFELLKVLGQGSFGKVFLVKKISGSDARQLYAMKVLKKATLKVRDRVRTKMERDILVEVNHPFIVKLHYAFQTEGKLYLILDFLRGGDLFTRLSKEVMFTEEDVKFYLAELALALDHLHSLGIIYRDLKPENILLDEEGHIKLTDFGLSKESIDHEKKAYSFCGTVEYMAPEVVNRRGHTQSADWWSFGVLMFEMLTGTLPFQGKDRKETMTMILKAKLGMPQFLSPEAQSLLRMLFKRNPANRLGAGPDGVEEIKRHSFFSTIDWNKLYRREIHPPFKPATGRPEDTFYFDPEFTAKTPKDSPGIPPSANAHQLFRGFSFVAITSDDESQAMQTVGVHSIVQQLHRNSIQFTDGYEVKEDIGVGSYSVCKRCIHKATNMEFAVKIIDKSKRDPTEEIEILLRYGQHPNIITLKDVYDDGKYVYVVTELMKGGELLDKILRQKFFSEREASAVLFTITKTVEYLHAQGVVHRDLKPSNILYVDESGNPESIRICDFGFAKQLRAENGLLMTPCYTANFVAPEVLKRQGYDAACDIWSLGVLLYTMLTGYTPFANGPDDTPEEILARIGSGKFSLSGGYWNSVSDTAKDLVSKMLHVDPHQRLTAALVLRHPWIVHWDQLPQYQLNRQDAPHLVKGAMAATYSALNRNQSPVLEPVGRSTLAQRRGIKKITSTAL
The protocol:
as §1

For experiment [4], the target named is T4, STK23 (MSSK1) (Homo sapiens, UniProt Q9UPE1).
T4 construct: purchased ThermoFisher (SelectScreen, Z'-LYTE)
T4 sequence (Q9UPE1 whole entry): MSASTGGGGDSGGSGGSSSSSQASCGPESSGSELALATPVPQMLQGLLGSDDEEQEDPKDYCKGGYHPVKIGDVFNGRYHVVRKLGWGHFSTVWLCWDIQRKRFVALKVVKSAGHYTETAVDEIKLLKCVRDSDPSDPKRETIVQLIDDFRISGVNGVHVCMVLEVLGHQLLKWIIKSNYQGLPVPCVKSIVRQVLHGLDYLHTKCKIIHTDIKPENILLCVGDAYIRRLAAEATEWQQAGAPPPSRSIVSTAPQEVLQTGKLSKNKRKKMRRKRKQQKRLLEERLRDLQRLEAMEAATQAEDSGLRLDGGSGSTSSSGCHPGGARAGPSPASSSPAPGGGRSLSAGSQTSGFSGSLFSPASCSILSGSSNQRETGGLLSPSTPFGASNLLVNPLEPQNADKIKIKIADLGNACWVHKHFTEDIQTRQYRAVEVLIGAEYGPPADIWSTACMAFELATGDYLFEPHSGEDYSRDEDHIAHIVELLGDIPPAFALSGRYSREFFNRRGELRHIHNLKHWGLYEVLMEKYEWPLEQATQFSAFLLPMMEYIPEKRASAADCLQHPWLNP
The protocol:
as §1

Experiment [5] deals with T5, ROS1 (Homo sapiens, UniProt P08922).
T5 construct: purchased ThermoFisher (SelectScreen, Z'-LYTE)
T5 sequence (P08922 28-2347): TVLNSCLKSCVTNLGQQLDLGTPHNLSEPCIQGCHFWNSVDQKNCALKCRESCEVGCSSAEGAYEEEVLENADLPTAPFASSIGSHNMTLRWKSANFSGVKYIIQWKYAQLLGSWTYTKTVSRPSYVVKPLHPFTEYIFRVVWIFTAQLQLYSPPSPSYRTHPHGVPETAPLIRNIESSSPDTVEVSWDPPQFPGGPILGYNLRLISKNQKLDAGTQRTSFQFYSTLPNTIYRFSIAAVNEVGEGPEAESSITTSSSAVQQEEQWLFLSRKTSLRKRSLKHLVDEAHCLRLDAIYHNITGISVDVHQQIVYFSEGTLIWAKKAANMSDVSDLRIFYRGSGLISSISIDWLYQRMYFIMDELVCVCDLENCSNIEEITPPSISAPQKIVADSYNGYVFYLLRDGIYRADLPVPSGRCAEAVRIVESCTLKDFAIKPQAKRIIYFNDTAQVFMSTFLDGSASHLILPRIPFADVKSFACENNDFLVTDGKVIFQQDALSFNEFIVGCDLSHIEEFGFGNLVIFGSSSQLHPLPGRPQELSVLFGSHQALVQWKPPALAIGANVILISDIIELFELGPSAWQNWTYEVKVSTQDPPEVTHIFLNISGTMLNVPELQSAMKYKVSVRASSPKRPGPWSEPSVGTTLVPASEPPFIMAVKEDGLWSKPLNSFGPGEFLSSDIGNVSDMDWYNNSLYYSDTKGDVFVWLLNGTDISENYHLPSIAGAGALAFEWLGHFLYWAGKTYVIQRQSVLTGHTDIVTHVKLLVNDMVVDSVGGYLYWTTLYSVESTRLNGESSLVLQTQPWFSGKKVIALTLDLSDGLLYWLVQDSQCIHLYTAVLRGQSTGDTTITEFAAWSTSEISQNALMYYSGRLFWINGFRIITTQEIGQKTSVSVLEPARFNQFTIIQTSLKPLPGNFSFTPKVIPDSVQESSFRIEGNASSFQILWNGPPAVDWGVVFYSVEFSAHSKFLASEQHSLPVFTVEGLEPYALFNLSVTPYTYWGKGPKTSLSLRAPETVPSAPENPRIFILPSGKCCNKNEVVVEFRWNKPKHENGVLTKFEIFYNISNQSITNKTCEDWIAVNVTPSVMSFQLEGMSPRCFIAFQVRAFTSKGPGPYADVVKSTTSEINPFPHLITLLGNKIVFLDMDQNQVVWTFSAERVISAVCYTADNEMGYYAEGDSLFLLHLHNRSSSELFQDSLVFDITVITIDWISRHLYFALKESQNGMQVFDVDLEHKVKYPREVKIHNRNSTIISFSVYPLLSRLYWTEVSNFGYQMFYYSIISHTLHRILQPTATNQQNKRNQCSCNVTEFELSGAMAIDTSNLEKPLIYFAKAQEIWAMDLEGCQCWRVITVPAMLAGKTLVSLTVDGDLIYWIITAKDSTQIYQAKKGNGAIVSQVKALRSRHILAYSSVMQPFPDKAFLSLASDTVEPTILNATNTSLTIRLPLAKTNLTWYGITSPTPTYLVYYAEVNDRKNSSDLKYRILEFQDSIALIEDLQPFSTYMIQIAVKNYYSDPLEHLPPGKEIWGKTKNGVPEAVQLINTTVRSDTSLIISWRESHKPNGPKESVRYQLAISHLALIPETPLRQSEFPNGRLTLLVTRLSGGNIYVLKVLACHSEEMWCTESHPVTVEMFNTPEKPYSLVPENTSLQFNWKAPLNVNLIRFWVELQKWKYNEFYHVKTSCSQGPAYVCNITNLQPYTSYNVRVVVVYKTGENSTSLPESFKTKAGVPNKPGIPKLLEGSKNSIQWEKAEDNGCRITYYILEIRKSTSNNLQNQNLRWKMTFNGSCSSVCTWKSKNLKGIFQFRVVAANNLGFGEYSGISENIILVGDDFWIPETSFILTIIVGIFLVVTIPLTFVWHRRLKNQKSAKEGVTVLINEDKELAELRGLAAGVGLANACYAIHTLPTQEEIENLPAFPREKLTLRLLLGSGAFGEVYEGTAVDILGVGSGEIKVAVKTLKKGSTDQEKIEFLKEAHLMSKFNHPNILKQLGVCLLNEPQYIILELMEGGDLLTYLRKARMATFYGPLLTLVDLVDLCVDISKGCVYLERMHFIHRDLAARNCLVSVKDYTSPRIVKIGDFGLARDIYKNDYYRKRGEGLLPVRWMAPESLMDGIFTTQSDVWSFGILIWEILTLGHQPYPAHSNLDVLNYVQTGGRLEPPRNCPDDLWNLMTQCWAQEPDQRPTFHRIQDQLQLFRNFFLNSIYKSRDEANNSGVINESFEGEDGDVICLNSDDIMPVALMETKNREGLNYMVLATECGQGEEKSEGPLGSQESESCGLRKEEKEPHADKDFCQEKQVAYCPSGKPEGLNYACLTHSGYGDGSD
The protocol:
as §1

Experiment [6] concerns the target T6, IKBKE (IKK epsilon) (Homo sapiens, UniProt Q14164).
T6 construct: purchased ThermoFisher (SelectScreen, Z'-LYTE)
T6 sequence (Q14164 1-716): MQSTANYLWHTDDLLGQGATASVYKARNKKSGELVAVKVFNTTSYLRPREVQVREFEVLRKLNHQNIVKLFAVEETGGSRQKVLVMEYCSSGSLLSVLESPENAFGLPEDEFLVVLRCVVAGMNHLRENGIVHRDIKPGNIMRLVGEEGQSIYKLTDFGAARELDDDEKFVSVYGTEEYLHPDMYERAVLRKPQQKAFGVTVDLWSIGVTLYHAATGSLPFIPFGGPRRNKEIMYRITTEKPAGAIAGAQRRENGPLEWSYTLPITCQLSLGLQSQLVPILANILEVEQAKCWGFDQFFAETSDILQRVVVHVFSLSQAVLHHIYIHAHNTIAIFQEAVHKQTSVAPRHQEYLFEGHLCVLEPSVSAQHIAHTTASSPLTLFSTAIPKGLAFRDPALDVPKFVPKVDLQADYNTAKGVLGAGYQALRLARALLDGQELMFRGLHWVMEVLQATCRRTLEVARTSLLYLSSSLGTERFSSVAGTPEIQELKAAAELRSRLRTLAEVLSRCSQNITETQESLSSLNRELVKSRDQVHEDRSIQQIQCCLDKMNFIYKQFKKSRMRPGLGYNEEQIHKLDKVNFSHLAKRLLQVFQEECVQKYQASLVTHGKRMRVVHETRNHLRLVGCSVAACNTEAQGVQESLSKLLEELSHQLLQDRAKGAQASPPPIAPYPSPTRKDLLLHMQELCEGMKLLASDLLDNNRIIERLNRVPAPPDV
The protocol:
as §1

For experiment [7], the target named is T7, FLT3 (Homo sapiens, UniProt P36888).
T7 construct: purchased ThermoFisher (SelectScreen, Z'-LYTE)
T7 sequence (P36888 27-993): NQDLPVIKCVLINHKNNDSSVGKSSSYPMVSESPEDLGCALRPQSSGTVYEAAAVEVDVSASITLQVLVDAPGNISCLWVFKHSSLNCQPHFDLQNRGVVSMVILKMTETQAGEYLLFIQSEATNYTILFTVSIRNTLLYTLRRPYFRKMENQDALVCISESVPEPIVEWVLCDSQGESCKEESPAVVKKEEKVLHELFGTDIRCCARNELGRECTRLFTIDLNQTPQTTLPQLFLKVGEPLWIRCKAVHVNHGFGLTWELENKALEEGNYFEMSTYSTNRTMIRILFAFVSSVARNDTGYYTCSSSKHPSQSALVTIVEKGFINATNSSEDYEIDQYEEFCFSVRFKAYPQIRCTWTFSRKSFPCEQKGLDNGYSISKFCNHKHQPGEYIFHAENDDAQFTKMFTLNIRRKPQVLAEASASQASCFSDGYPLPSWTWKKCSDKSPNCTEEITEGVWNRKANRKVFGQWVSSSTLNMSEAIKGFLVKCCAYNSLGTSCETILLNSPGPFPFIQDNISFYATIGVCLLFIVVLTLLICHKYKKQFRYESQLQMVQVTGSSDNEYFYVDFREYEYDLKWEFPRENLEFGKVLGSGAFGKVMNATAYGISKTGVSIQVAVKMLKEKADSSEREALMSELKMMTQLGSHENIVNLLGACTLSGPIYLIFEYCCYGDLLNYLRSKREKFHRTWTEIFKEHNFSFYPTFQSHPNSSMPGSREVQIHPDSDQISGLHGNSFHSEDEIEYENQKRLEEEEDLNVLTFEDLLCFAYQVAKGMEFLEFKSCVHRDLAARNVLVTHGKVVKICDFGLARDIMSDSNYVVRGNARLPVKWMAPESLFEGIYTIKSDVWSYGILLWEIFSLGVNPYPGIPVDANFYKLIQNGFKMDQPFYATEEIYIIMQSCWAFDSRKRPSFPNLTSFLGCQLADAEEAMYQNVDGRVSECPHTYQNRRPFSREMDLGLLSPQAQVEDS
The protocol: as §1

The target of experiment [8] is T8, CSNK1G1 (CK1 gamma 1) (Homo sapiens, UniProt Q9HCP0).
T8 construct: purchased ThermoFisher (SelectScreen, Z'-LYTE)
T8 sequence (Q9HCP0 whole entry): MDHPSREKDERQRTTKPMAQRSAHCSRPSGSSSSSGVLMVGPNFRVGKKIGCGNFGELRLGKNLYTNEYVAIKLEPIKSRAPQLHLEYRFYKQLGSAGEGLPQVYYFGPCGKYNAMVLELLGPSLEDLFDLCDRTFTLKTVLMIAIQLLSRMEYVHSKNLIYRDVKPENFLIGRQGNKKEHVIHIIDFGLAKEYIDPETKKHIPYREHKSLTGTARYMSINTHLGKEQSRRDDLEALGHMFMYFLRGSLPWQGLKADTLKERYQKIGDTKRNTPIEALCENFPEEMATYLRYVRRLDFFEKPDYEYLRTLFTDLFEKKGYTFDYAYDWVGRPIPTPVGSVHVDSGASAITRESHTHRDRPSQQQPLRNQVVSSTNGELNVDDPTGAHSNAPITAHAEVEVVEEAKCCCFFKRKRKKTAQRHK
The protocol: as §1

For experiment [9], the target named is T9, DYRK1B (Homo sapiens, UniProt Q9Y463).
T9 construct: purchased ThermoFisher (SelectScreen, Z'-LYTE)
The protocol:
as §1

By inhibition is commonly meant the relative decrease from the control value, in per cent.

T1 sequence (Q9Y6E0 whole entry): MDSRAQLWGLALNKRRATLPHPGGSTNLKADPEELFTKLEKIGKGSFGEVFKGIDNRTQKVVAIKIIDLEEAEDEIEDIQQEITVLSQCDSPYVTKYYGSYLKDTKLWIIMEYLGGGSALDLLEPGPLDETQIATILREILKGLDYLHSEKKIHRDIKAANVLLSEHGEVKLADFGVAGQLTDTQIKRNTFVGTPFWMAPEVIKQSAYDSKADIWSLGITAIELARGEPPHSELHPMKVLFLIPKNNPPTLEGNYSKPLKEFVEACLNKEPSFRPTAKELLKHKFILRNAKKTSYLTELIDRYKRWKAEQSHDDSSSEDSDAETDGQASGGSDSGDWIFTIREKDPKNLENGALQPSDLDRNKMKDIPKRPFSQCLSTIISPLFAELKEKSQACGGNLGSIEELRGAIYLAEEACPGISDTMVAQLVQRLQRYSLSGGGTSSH

Turning to `Cc1ncc(-c2nc(Nc3ccc(C(=O)NCCN4CCCCC4)cc3)ncc2F)n1C(C)C` [Compound 3], the inhibition at 10 µM in [1] was found to be 89%; in [2], 40%; in experiment [3] it was 81%; in experiment [4], 15%; in experiment [5] it was 99%; in experiment [6], 33%. The inhibition at 10 µM amounted to 101% in experiment [7], 70% in experiment [8] and 100% in experiment [9].

With `Cc1cc(Nc2nc(N)nn2C(=O)NC(C)C)ccc1Cl` [Compound 5], the inhibition at 10 µM in [1] was 27%; in experiment [2], 10%; in experiment [3] it was 37%; in [4], -2.48%; in experiment [5] it was 57%; in [6] it was 9%. Besides, the inhibition at 10 µM is 55% in experiment [7], 8% in [8] and -4% in [9].

Regarding “XMD8-92 [Compound 2, reference compound]”, the “STK24 (MST3) % Inhibition” value in experiment [1] (10 µM compound, ATP Km app) is on record as 30%. Further, the “GRK7 % Inhibition” value in experiment [2] (10 µM compound, ATP Km app) was 39%. Further, the “RPS6KA3 (RSK2) % Inhibition” value in experiment [3] (10 µM compound, ATP Km app) is listed as 98%. In [4] (10 µM compound, ATP Km app), the “STK23 (MSSK1) % Inhibition” value came to 15%. Further, the “ROS1 % Inhibition” value in experiment [5] (10 µM compound, ATP Km app) was determined as 69%. Also, the “IKBKE (IKK epsilon) % Inhibition” value in experiment [6] (10 µM compound, ATP Km app) was determined as 4.66%. In addition, in experiment [7] (10 µM compound, ATP Km app), the “FLT3 % Inhibition” value worked out at 90%. For the same compound, the “CSNK1G1 (CK1 gamma 1) % Inhibition” value in experiment [8] (10 µM compound, ATP Km app) amounted to 24%. In addition, in experiment [9] (10 µM compound, ATP Km app), the “DYRK1B % Inhibition” value is reported as 12%.

(Values after article PMC4854315, “Discovery of a novel allosteric inhibitor-binding site in ERK5: comparison with the canonical kinase hinge ATP-binding site” (Acta Crystallographica. Section D, Structural Biology, 2016).)
